From patent US10265298B2, “Method of increasing the bioavailability of silybin” (Macau University of Science and Technology, priority 2017, dated 2019)

Biological target: T1, BCRP (Homo sapiens, UniProt Q9UNQ0)
T1 sequence (Q9UNQ0 1-655): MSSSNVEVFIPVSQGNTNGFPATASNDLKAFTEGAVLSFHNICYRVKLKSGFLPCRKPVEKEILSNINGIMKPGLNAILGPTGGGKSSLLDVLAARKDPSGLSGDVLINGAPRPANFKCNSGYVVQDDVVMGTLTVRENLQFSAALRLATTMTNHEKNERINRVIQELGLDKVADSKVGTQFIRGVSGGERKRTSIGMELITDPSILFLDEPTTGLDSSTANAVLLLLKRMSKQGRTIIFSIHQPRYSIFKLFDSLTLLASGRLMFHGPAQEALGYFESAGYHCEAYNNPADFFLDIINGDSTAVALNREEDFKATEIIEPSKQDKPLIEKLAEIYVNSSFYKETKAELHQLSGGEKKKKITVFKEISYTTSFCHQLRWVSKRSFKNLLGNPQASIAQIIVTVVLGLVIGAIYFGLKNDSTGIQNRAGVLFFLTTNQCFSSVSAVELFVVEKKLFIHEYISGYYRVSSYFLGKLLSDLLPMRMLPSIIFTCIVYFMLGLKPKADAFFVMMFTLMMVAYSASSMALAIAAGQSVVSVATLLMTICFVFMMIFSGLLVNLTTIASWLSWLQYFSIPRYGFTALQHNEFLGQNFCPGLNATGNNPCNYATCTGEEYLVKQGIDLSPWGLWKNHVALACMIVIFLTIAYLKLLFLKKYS
Test: Inhibition of pheophorbide A (Ph A) efflux in MDCKII-BCRP cell monolayers
Details: for mean efflux ratio of Ph A in the presence of inhibitor: dog, 180 min
Protocol: Parental Madin-Darby canine kidney II (MDCKII), multi-drug resistance gene 1-Madin-Darby canine kidney II (MDR1-MDCKII), breast cancer resistance protein-Madin-Darby canine kidney II (BCRP-MDCKII), and multi-drug resistance protein 2-Madin-Darby canine kidney II (MRP2-MDCKII) cells were kindly provided by the Netherlands Cancer Institute (Amsterdam, Netherlands) and frozen at −80° C. The MDCKII cells were cultured at 37° C./5% CO2 in Dulbecco's modified Eagle's medium supplemented with 10% fetal bovine serum, 1% nonessential amino acids, and 2% penicillin-streptomycin. The cells were seeded on transwell inserts (Corning Inc.) at a density of 2.0×10^5 cells/cm^2 and grown for 4-5 days to form confluent monolayers.
Bidirectional transport assays in human colorectal adenocarcinoma 2 (Caco-2) and Madin-Darby canine kidney II (MDCK II) was carried out by dosing substrates in assay buffer to either the apical chamber (A-to-B) or the basolateral chamber (B-to-A); cells were then incubated at 37° C. with shaking at 50 rotations per minute (rpm), and 100 μl samples were collected at 30, 60, 90, 120 and 180 minutes from the basolateral chamber to study the drug transport of AP to BL, or apical chamber to study the drug transport of BL to AP. Cell monolayers were then washed twice with ice-cold assay buffer and lysed with methanol on ice for 10 minutes. For inhibition studies, Caco-2 or MDCK II cell monolayers were pre-incubated with an inhibitor in both apical and basolateral chambers for 30 minutes, and bidirectional transport of 10 μM silybin was conducted in the absence (control) or presence of the inhibitor in both chambers. […] For fluorescence intensity detection, samples collected from AP or BL side were immediately detected in 96 well black plate by Microplate ultraviolet-visible spectroscopy (UV/VIS) spectrophotometer (TECAN infinite M200 PRO, Männedorf, Switzerland). In all cases, each determination was performed in triplicate.
The apparent permeability coefficients (Papp) were calculated as Papp=dQ/dt×1/(C“0”A) where dQ/dt (mM/sec) is the rate of permeation of the drug across the cells, C0 (millimolar (mM)) is the donor compartment concentration at time zero and A (cm^2) is the area of the cell monolayer. C0 is obtained from analysis of the dosing solution at the start experiment. Efflux Ratio (ER)=Papp (B to A)/Papp (A to B), while Papp (B−A) is the Papp value measured in the B to A direction, and Papp (A−B) is the Papp value measured in the A to B direction. 1.5 Preparation of Rat Sandwich-Cultured Hepatocytes
(§1) (*, P<0.05;**, P<0.01; ***, P<0.001 vs absence of any inhibitor. n=3).
as §1

SMILES | IC50 [µM] | mean efflux ratio of Ph A in the presence of inhibitor
O=c1cc(-c2ccccc2)oc2cc(O)c(O)c(O)c12 [baicalein] | 22.1 | 1.48
COc1ccc(-c2cc(=O)c3c(OC)c(OC)c(OC)c(OC)c3o2)cc1 [tangeretin] | 8.88 | 1.18
